This is an account of results in US9796711B2, “Substituted pyrazolo[3,4-b]pyridin-6-carboxylic acids and method of use” (AbbVie S.àr.l., priority 2015, dated 2017).

Read-outs that look alike come from different tables or passages of the source.

This experiment concerns the target T1, ΔF508-CFTR (Homo sapiens, UniProt P13569, DEL508-508).
T1 construct: host or cells: CFBE41o-, doxycycline-inducible
Put plainly: CFTR cell surface levels using HRP-tagged ΔF508-CFTR expressing CFBE cells, intrinsic corrector capacity. The format is cell-based. The following applies: 20 hours at 33° C.; for EC50: read-out: EC50. The source says: Measuring CFTR Cell Surface Levels Using HRP-Tagged AF508-CFTR Expressing CFBE Cells
The HRP-tagged AF508-CFTR cell assay measures the expression of CFTR-ΔF508 at the plasma membrane. CFTR-ΔF508 has a folding defect leading to absence of protein at the plasma membrane. This assay is used to evaluate the capacity of compounds to increase the expression of CFTR-ΔF508 at the plasma membrane. The CFTR-ΔF508 is tagged with HRP (horse radish peroxidase enzyme) within the ECL4 (Extracellular loop 4) of CFTR (Phuan, P.-W. et al. Synergy-based small-molecule screen using a human lung epithelial cell line yields AF508-CFTR correctors that augment VX-809 maximal efficacy. Mol. Pharmacol. 86, 42-51 (2014)). When HRP-tagged AF508-CFTR is present at the plasma membrane, the HRP enzyme activity can be measured. The amount of CFTR-ΔF508 that can be rescued to the plasma membrane is correlated with the amount of functional enzyme that can be measured.
There are several ways to measure the capacity of compounds to rescue CFTR-ΔF508 to the plasma membrane; either compounds are evaluated on their own and the impact on plasma membrane levels is measured or compounds are evaluated in combination with a co-corrector, i.e. a compound that rescues CFTR-ΔF508 to the plasma membrane but rescue can be enhanced by addition of compounds due to a complementary mode of action.
Activity of Compounds for their Intrinsic Corrector Capacity:
For this purpose doxycycline-inducible AF508-CFTR-HRP expressing CFBE4lo-cells (obtained from Gergely Lukacs, McGill University) were maintained in MEM (Gibco; 31095) supplemented with 10% fetal bovine serum (Hyclone; SV30160.03) under puromycin (3 μg/mL) and G418 selection (0.2 mg/mL). For compound testing, cells were seeded at 4000 cells/well in white 384-well plates (Greiner; 781080) in 50 μL medium containing 0.5 μg/mL doxycycline and incubated for 68 hours at 37° C., 5% CO2. On day four, 10 μL test compounds diluted in PBS were added to the plates at a final DMSO concentration of 0.1%. All compound plates contained negative controls (DMSO) and positive controls (3 μM corrector, 3-[(2R,4R)-4-({[1-(2,2-difluoro-1,3-benzodioxol-5-yl)cyclopropyl]carbonyl}amino)-7-methoxy-3,4-dihydro-2H-chromen-2-yl]benzoic acid). Cell plates were incubated at 33° C., 5% CO2 for 20 hours. On day five, the cells were washed five times with phosphate-buffered saline, and HRP activity was assayed by the addition of 50 μL/well of HRP substrate (SuperSignal™ West Pico Chemiluminescent Substrate, Thermo Scientific; 34080). After incubation for 15 minutes in the dark, chemiluminescence was measured using a plate reader (EnVision®, Perkin Elmer). Raw data were normalized to percentage activity values using the equation: 100×(Sample−Negative control)/(Positive control−Negative Control).

[1] abbreviates: HRP-tagged ΔF508-CFTR CFBE41o- cells, compounds alone (intrinsic corrector capacity), positive control 3 μM corrector.
The mark [2] stands for this setting: HRP-tagged ΔF508-CFTR CFBE41o- cells, compounds alone (intrinsic corrector capacity).
Where [3] appears, read: HRP-tagged ΔF508-CFTR CFBE cells, compound alone (intrinsic corrector capacity).

T1 sequence (P13569 with tags, fused parts or gaps DEL508-508): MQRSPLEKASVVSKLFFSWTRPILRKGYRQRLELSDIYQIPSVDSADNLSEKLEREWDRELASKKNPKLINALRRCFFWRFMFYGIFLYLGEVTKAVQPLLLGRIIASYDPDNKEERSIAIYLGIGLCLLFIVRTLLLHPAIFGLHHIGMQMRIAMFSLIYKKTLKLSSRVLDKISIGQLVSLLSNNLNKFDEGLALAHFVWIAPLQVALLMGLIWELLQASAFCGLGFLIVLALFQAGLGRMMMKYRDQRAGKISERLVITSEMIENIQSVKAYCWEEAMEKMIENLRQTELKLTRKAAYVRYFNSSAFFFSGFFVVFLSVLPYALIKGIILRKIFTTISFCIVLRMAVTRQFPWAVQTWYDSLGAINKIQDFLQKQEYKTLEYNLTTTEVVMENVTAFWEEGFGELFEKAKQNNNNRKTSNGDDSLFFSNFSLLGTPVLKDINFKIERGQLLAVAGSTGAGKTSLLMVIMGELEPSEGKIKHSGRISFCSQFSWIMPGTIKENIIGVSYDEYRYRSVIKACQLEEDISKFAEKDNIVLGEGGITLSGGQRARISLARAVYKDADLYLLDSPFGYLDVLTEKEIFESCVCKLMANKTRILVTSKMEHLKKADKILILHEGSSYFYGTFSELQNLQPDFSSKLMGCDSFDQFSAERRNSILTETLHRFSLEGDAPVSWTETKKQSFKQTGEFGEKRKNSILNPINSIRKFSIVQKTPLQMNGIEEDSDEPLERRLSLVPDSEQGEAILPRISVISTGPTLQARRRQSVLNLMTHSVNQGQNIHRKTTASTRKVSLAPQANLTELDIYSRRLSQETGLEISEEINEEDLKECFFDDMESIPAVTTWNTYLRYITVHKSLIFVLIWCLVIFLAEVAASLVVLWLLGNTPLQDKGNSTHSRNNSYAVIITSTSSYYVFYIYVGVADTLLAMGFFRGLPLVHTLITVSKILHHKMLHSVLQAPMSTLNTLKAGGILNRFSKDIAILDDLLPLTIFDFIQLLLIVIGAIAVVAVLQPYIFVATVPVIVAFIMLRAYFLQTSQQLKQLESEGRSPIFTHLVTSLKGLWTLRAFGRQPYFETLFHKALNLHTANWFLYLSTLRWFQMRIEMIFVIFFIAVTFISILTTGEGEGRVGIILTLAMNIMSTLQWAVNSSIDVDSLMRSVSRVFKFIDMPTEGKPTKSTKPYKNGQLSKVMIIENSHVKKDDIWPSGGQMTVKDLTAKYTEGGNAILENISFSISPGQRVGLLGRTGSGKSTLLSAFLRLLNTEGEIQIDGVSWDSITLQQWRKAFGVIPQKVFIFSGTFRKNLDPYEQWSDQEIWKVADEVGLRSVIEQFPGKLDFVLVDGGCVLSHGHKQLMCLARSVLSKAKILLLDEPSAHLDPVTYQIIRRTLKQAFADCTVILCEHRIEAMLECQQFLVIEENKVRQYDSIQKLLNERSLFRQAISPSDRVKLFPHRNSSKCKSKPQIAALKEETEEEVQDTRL

Broadly, the EC50 is the concentration needed to bring the measured effect to its halfway point. Regarding `CCOC(=O)c1nn(-c2ccccc2)c2nc(C(=O)O)cc(-c3ccc(N4CCOCC4)cc3)c12` [compound 16, 3-(ethoxycarbonyl)-4-[4-(morpholin-4-yl)phenyl]-1-phenyl-1H-pyrazolo[3,4-b]pyridine-6-carboxylic acid], the “% Activation” value under setting [1] was 92.93%. Also, under setting [2], the EC50 was determined as 3340 nM.
Regarding `CC(=O)N1CCN(c2ccc(-c3cc(C(=O)O)nc4c3c(C)nn4-c3ccccc3)cc2)CC1` [compound 29, 4-[4-(4-acetylpiperazin-1-yl)phenyl]-3-methyl-1-phenyl-1H-pyrazolo[3,4-b]pyridine-6-carboxylic acid], the “% Activation” value under setting [1] was found to be 146.1%. Moreover, the EC50 under setting [2] was determined as 3110 nM.
Consider `Cc1nn(-c2ccc(F)c(F)c2)c2nc(C(=O)O)cc(-c3ccc(N4CCOCC4)cc3)c12` [compound 37, 1-(3,4-difluorophenyl)-3-methyl-4-[4-(morpholin-4-yl)phenyl]-1H-pyrazolo[3,4-b]pyridine-6-carboxylic acid], for which the “% Activation” value under setting [1] was 112.9%. Also, the EC50 under setting [2] came out at 1110 nM.
On the same counts, the results for `Cc1nn(-c2ccnc(F)c2)c2nc(C(=O)O)cc(-c3ccc(N4CCOCC4)cc3)c12` [compound 57, 1-(2-fluoropyridin-4-yl)-3-methyl-4-[4-(morpholin-4-yl)phenyl]-1H-pyrazolo[3,4-b]pyridine-6-carboxylic acid] are 68.57% and 3340 nM.
On the same counts, the results for `CC(C)c1nn(-c2ccccc2)c2nc(C(=O)O)cc(-c3ccc(N4CCCC4)cc3)c12` [compound 24, 1-phenyl-3-(propan-2-yl)-4-[4-(pyrrolidin-1-yl)phenyl]-1H-pyrazolo[3,4-b]pyridine-6-carboxylic acid] are 134.1% and 1830 nM.
Consider `COc1ccc(-c2cc(C(=O)O)nc3c2c(C)nn3CCC#N)cc1` [compound 4, 1-(2-cyanoethyl)-4-(4-methoxyphenyl)-3-methyl-1H-pyrazolo[3,4-b]pyridine-6-carboxylic acid], for which the “% Activation” value under setting [1] worked out at 3.339%. Moreover, under setting [2], the concentration giving a half-maximal response (EC50) is above 10000 nM.
In the case of `Cc1nn(-c2cc(F)cc(F)c2)c2nc(C(=O)O)cc(-c3ccc(N4CCOCC4)cc3)c12` [compound 10, 1-(3,5-difluorophenyl)-3-methyl-4-[4-(morpholin-4-yl)phenyl]-1H-pyrazolo[3,4-b]pyridine-6-carboxylic acid], the “% Activation” value under setting [1] is listed as 116.55%. The EC50 under setting [2] came to 867 nM.
On the same counts, the results for `Cc1nn(-c2cccc(Br)c2)c2nc(C(=O)O)cc(-c3ccc(N4CCOCC4)cc3)c12` [compound 18, 1-(3-bromophenyl)-3-methyl-4-[4-(morpholin-4-yl)phenyl]-1H-pyrazolo[3,4-b]pyridine-6-carboxylic acid] are 126.8% and 783 nM.
Consider `Cc1nn(-c2cc[nH]c(=O)c2)c2nc(C(=O)O)cc(-c3ccc(N4CCOCC4)cc3)c12` [compound 58, 3-methyl-4-[4-(morpholin-4-yl)phenyl]-1-(2-oxo-1,2-dihydropyridin-4-yl)-1H-pyrazolo[3,4-b]pyridine-6-carboxylic acid], for which the “% Activation” value under setting [1] is 4.754%. Moreover, the EC50 under setting [2] was above 10000 nM.
Turning to `COc1ccc(-c2cc(C(=O)O)nc3c2c(C)nn3C2CCCC2)cc1` [compound 3, 1-cyclopentyl-4-(4-methoxyphenyl)-3-methyl-1H-pyrazolo[3,4-b]pyridine-6-carboxylic acid], the “% Activation” value under setting [1] is reported as 46.83%. For the same molecule, the EC50 under setting [2] stood at 3340 nM.
On the same counts, the results for `Cc1nn(-c2ccccc2)c2nc(C(=O)O)cc(-c3ccc(N4CCC(F)C4)cc3)c12` (stereo not drawn) [compound 28, 4-[4-(3-fluoropyrrolidin-1-yl)phenyl]-3-methyl-1-phenyl-1H-pyrazolo[3,4-b]pyridine-6-carboxylic acid] are 129.5% and 1180 nM.
On the same counts, the results for `COc1cc(-n2nc(C)c3c(-c4ccc(N5CCOCC5)cc4)cc(C(=O)O)nc32)ccn1` [compound 51, 1-(2-methoxypyridin-4-yl)-3-methyl-4-[4-(morpholin-4-yl)phenyl]-1H-pyrazolo[3,4-b]pyridine-6-carboxylic acid] are 41.22% and 1180 nM.
With `CC(C)COC(=O)N1CCN(c2cc(C(=O)O)nc3c2c(C2CCC2)nn3-c2ccc(F)cc2)CC1` [compound 930, 3-cyclobutyl-1-(4-fluorophenyl)-4-{4-[(2-methylpropoxy)carbonyl]piperazin-1-yl}-1H-pyrazolo[3,4-b]pyridine-6-carboxylic acid], under setting [3], the “% Activation” value came to 434.3% and the EC50 stood at 240 nM.
As for `CNC(=O)c1nn(-c2ccccc2)c2nc(C(=O)O)cc(-c3ccc(N4CCOCC4)cc3)c12` [compound 55, 3-(methylcarbamoyl)-4-[4-(morpholin-4-yl)phenyl]-1-phenyl-1H-pyrazolo[3,4-b]pyridine-6-carboxylic acid], under setting [1], the “% Activation” value is reported as 0.088%. Moreover, under setting [2], the EC50 was above 10000 nM.
On the same counts, the results for `Cc1nn(-c2cc(C(F)(F)F)[nH]n2)c2nc(C(=O)O)cc(-c3ccc(N4CCOCC4)cc3)c12` [compound 7, 3-methyl-4-[4-(morpholin-4-yl)phenyl]-1-[5-(trifluoromethyl)-1H-pyrazol-3-yl]-1H-pyrazolo[3,4-b]pyridine-6-carboxylic acid] are 5.355% and above 10000 nM.
On the same counts, the results for `Cc1c(C(=O)O)nc2c(c(C)nn2-c2ccccc2)c1-c1ccc(N2CCOCC2)cc1` [compound 42, 3,5-dimethyl-4-[4-(morpholin-4-yl)phenyl]-1-phenyl-1H-pyrazolo[3,4-b]pyridine-6-carboxylic acid] are 74.83% and 3340 nM.
On the same counts, the results for `COc1cccc(-n2nc(C)c3c(-c4ccc(N5CCOCC5)cc4)cc(C(=O)O)nc32)c1` [compound 21, 1-(3-methoxyphenyl)-3-methyl-4-[4-(morpholin-4-yl)phenyl]-1H-pyrazolo[3,4-b]pyridine-6-carboxylic acid] are 103.72% and 1060 nM.
For `Cc1nn(-c2ccc(OC(F)(F)F)cc2)c2nc(C(=O)O)cc(-c3ccc(N4CCOCC4)cc3)c12` [compound 31, 3-methyl-4-[4-(morpholin-4-yl)phenyl]-1-[4-(trifluoromethoxy)phenyl]-1H-pyrazolo[3,4-b]pyridine-6-carboxylic acid], the “% Activation” value under setting [1] came out at 96.335%. The EC50 under setting [2] was 522 nM.
On the same counts, the results for `Cc1nn(-c2ccccc2)c2nc(C(=O)O)cc(-c3ccc(C4=CCN(C)CC4)cc3)c12` [compound 27, 3-methyl-4-[4-(1-methyl-1,2,3,6-tetrahydropyridin-4-yl)phenyl]-1-phenyl-1H-pyrazolo[3,4-b]pyridine-6-carboxylic acid] are 41.145% and 6670 nM.
As to `Cc1nn(-c2ccccc2)c2nc(C(=O)O)cc(-c3ccc(N4CCCCC4)cc3)c12` [compound 8, 3-methyl-1-phenyl-4-[4-(piperidin-1-yl)phenyl]-1H-pyrazolo[3,4-b]pyridine-6-carboxylic acid], the “% Activation” value under setting [1] was 91.055%. The half-maximal effective concentration (EC50) under setting [2] was determined as 754 nM.
On the same counts, the results for `Cc1nn(-c2cccc(Cl)c2)c2nc(C(=O)O)cc(-c3ccc(N4CCOCC4)cc3)c12` [compound 11, 1-(3-chlorophenyl)-3-methyl-4-[4-(morpholin-4-yl)phenyl]-1H-pyrazolo[3,4-b]pyridine-6-carboxylic acid] are 134.3% and 1380 nM.
